These results are taken from patent US8962630B2, “Pyrrolopyrimidine compounds and their uses” (Novartis AG, priority 2008, dated 2015).

What all share (format): biochemical
One assay addresses CDK2/cyclin A (Homo sapiens (Human), UniProt P24941). As to the kind of experiment: CDK2/Cyclin A enzymatic activity assay (IMAP-FP). The settings on record: Table 2; read-out: CDK2.
The target in another assay is CDK4/cyclin D1 (Homo sapiens (Human), UniProt P11802). As to the kind of experiment: CDK4/Cyclin D1 enzymatic activity assay (Lance TR-FRET). The settings on record: Table 2; 3 μM ATP; read-out: CDK4. The protocol: A 384-well microtiter Lance TR-FRET (time-resolved-fluorescence energy transfer) endpoint assay was used for CDK4/cyclin D1 kinase activity measurements. The same assay was used for IC50 determination of small molecule inhibitors. In general, the kinase reactions were carried out in 30 μL volumes in the reaction solution containing the following: 2 uL compound (in […]), 18 uL CDK4/cyclin D1 in Assay Buffer (50 mM HEPES, pH 7.5, 5 mM MgCl2, 2 mM MnCl2, 1 mM DTT, 0.05% BSA, 0.02% Tween-20), 10 uL of the mixture of pRb152 and ATP. The final reaction mixture contains compound (inhibitor) with the concentration varying from 0.005-10 μM, 2% DMSO, 0.3 nM CDK4/cyclin D1, 175 nM pRb152, and 3 μM ATP (Amersham Pharmacia, Cat. No. 27-2056-01). All reactions were run at room temperature in 384-well white flat-bottom OptiPlates (Perkin Elmer, Cat. No. 6007290) for 60 min then were quenched by the addition of 10 μL of 120 mM EDTA. The signals were captured by the addition of 40 μL of the Detection Solution containing the following: Detection Buffer (50 mM HEPES, pH 7.5, 30 mM EDTA, 0.1% Triton x-100, 0.05% BSA), 70 ng/mL anti-phospho-pRb(S780) (Cell Signaling Technology, Cat. No. 9307S), 1 nM Lance Eu-W1024-Rabbit anti-IgG (Perkin Elmer, Cat. No. AD0082), and 20 nM SureLight™ Allophycocyanin-Streptavidin (Perkin Elmer, Cat. No. CR130-100). The resulted solutions were incubated at room temperature for 2 hours before read on the Evision Multilabel Reader (Perkin Elmer, Envision 2102-0010).
CDk4/cyclin D1 recombinant protein used in the enzymatic activity assay was prepared by coexpressing pDEST10-CDK4 (N-terminal His6) and pFastBacDual-GST-hCyclinDl viruses in Sf21 cells.
(In general: TR-FRET usually uses a lanthanide donor and a delayed reading to cut background.)

The next assay concerns the target CDK1/cyclin B (Homo sapiens (Human), UniProt P06493). Briefly: CDK1/Cyclin B enzymatic activity assay (IMAP-FP). The conditions noted are these: Table 2; 20 μM ATP; read-out: CDK1. The source says:
A 384-well microtiter IMAP-FPT™ (Molecular Devices Trade Mark Technology) endpoint assay was used for CDK1/cyclin B kinase activity measurements. The same assay was used for IC50 determination of small molecule inhibitors.

Sequence of CDK4/cyclin D1 (P11802 whole entry): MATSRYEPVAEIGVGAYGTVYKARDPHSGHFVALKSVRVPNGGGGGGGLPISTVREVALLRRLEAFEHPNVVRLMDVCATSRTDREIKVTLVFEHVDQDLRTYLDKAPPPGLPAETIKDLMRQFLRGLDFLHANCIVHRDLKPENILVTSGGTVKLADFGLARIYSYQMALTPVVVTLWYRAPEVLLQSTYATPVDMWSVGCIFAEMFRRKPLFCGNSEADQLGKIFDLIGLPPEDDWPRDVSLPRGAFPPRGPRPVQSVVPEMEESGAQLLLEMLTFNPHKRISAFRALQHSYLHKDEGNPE
Sequence of CDK4/cyclin D1 (P24385 whole entry partner): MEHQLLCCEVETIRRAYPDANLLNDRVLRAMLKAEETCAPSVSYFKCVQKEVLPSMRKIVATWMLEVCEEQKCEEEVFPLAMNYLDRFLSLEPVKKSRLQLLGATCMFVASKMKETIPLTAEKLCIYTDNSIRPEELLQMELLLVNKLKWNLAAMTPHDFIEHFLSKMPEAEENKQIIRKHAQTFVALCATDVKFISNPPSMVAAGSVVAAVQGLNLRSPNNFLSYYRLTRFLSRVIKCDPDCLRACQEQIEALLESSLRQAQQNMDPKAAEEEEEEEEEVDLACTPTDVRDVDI
Sequence of CDK1/cyclin B (P06493 whole entry, species assumed): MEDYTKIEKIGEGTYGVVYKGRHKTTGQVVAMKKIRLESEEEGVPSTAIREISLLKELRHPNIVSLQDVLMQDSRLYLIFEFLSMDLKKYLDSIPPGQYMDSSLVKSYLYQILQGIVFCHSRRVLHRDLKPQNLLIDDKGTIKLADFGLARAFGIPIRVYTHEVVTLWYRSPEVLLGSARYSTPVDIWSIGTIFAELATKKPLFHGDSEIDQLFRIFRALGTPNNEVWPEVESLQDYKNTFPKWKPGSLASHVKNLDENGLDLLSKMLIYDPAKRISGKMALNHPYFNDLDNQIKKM
Sequence of CDK1/cyclin B (P14635 whole entry partner, species assumed): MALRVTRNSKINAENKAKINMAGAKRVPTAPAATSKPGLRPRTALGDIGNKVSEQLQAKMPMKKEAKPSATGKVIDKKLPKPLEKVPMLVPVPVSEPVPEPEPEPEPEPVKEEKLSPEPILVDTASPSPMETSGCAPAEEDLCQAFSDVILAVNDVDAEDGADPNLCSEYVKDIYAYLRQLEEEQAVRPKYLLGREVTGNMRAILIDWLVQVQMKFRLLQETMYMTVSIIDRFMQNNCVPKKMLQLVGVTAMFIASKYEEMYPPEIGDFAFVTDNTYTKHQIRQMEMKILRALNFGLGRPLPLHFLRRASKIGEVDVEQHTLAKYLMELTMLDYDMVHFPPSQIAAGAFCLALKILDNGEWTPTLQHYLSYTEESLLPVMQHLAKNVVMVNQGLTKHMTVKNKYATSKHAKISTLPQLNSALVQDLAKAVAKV

Take `CN(C)C(=O)c1cc2cnc(Nc3ccc(N4CCC(N)C4)cn3)nc2n1C1CCCC1` (racemic) [Example 13, Rac-2-[5-(3-Amino-pyrrolidin-1-yl)-pyridin-2-ylamino]-7-cyclopentyl-7H-pyrrolo[2,3-d]pyrimidine-6-carboxylic acid dimethylamide]: the values for the IC50 at CDK2/cyclin A, on CDK4/cyclin D1 and at CDK1/cyclin B were > 15000 nM, 10 to 100 nM and > 15000 nM, respectively.
As to `CN(C)C(=O)c1cc2cnc(Nc3ccccn3)nc2n1C1CCCC1` [Example 1, 7-Cyclopentyl-2-(pyridin-2-ylamino)-7H-pyrrolo[2,3-d]pyrimidine-6-carboxylic acid dimethylamide], the IC50 on CDK2/cyclin A was > 15000 nM; on CDK4/cyclin D1 it was 100 to 1000 nM; at CDK1/cyclin B, > 15000 nM.
On to `CN(C)C(=O)c1cc2cnc(Nc3ccc(C(=O)NC4CCNCC4)cn3)nc2n1C1CCCC1` [Example 3, 7-Cyclopentyl-2-[5-(piperidin-4-ylcarbamoyl)-pyridin-2-ylamino]-7H-pyrrolo[2,3-d]pyrimidine-6-carboxylic acid dimethylamide], for which the IC50 is > 15000 nM at CDK2/cyclin A, 10 to 100 nM at CDK4/cyclin D1 and > 15000 nM at CDK1/cyclin B.
For the molecule `CN(C)C(=O)c1cc2cnc(Nc3ccc(N4CCNC(=O)C4)cn3)nc2n1C1CCCC1` [Example 4, 7-Cyclopentyl-2-[5-(3-oxo-piperazin-1-yl)-pyridin-2-ylamino]-7H-pyrrolo[2,3-d]pyrimidine-6-carboxylic acid dimethylamide], the IC50 at CDK2/cyclin A was > 15000 nM; at CDK4/cyclin D1, 10 to 100 nM; at CDK1/cyclin B, > 15000 nM.
For `CN(C)C(=O)c1cc2cnc(Nc3ccc(N4CCC(N(C)C)CC4)cn3)nc2n1C1CCCC1` [Example 6, 7-Cyclopentyl-2-(4-dimethylamino-3,4,5,6-tetrahydro-2-[1,3′]bipyridinyl-6′-ylamino)-7H-pyrrolo[2,3-d]pyrimidine-6-carboxylic acid dimethylamide], the IC50 at CDK2/cyclin A was > 15000 nM; on CDK4/cyclin D1, 1 to 10 nM; on CDK1/cyclin B, > 15000 nM.
For `CC(=O)N1CCN(c2ccc(Nc3ncc4cc(C(=O)N(C)C)n(C5CCCC5)c4n3)nc2)CC1` [Example 7, 2-[5-(4-Acetylpiperazin-1-yl)-pyridin-2-ylamino]-7-cyclopentyl-7H-pyrrolo[2,3-d]pyrimidine-6-carboxylic acid dimethylamide], the IC50 was > 15000 nM at CDK2/cyclin A, 10 to 100 nM at CDK4/cyclin D1 and > 15000 nM on CDK1/cyclin B.
For the molecule `CN(C)C(=O)c1cc2cnc(Nc3ccc(N4CCCNCC4)cn3)nc2n1C1CCCC1` [Example 8, 7-Cyclopentyl-2-(5-[1,4]diazepan-1-yl-pyridin-2-ylamino)-7H-pyrrolo[2,3-d]pyrimidine-6-carboxylic acid dimethylamide], the figures for the IC50 at CDK2/cyclin A, on CDK4/cyclin D1 and at CDK1/cyclin B were 8000 nM, 10 to 100 nM and 14000 nM, respectively.
Taken in the same sequence, the figures for `CN(C)C(=O)c1cc2cnc(Nc3ccc(N4CCN(CCC#N)CC4)cn3)nc2n1C1CCCC1` [Example 9, 2-{5-[4-(2-Cyano-ethyl)-piperazin-1-yl]-pyridin-2-ylamino}-7-cyclopentyl-7H-pyrrolo[2,3-d]pyrimidine-6-carboxylic acid dimethylamide] were > 15000 nM, 10 to 100 nM and > 15000 nM.
Regarding `CN(C)C(=O)c1cc2cnc(Nc3ccc(CN4CC5CCC(C4)N5)cn3)nc2n1C1CCCC1` [Example 73, 7-Cyclopentyl-2-[5-(3,8-diaza-bicyclo[3.2.1]oct-3-ylmethyl)-pyridin-2-ylamino]-7H-pyrrolo[2,3-d]pyrimidine-6-carboxylic acid dimethylamide], the IC50 at CDK4/cyclin D1 was 10 to 100 nM.
Consider `CN(C)C(=O)c1cc2cnc(Nc3ccc(N4CCNCC4=O)cn3)nc2n1C1CCCC1` [Example 109, 7-cyclopentyl-2-[5-(2-oxopiperazin-1-yl)pyridin-2-ylamino]-7H-pyrrolo[2,3-d]pyrimidine-6-carboxylic acid dimethylamide], for which, on CDK4/cyclin D1, the IC50 was in the range of 100 to 1000 nM.
